Holding throughout (assay type): cell-based
For test [1], the target named is T1, SMARCA2 (Homo sapiens, UniProt P51531). Kind of test: SMARCA2 Western blot MV4-11 degradation. More on the design: SMARCA2 and SMARCA4 protein degradation in MV4-11 cells; endogenous in cells; host or cells: MV4-11. To be noted: 24 h; for Dmax: MV4-11, MV4-11 cells, read-out: SMARCA2 MSD MV411 degradation 24 h: average Dmax %; for DC50: MV4-11 cells, read-out: SMARCA2 MSD MV411 degradation 24 h: Mean external-Abs DC50. Here is the method:
(§1) Example 54. SMARCA2 and SMARCA 4 Western Blot MV4-11 Degradation
(§2) Cells were seeded into 6-well plates (MV4-11: 4×10^6 cells/well/1 ml) and 1 ml of 2× compound solution was added into the well to make the final concentration and the plates were mixed well and incubated for 24 hours (No cytotoxicity was observed). The cell were collected with media and spun at 3000 rpm for 5 minutes. The supernatant was aspirated and the well and the cells were washed with cold PBS once and combined for centrifugation again; the supernatant aspirated again. 200 ul pre-chilled RIPA lysis buffer (Boston BioProducts BP-115D) with protease/phosphatase inhibitor (Roche 05892791001/Roche 04906837001) was directly added into the tube to lyze the cells for 20 minutes on ice. The cell lysate were collected into EP tubes and spun at 13000 rpm for 20 minutes and 72 ul supernatant was transferred to a fresh EP tube containing 18 ul of 5× loading buffer (Beyotime Bio P0015) to make the loading samples. The samples were heated to 100° C. for 10 minutes and cooled to RT and microcentrifuged. 20 ul of samples were loaded onto SDS-PAGE gel (Novex, WG1402BOX) and the gel was run at 80 V for 20 minutes and 120 V for 1.5 hours. The samples were electrotransfer to a NC membrane using wet-transfer method with 250 mA for 2.5 hours. The membrane was blocked with LICOR blocking buffer (LI-COR, 927-50000) for 1 hour. The membrane was washed three times with TBST (CST #9997S), 5 minutes each. Incubation was performed with primary antibody prepared in blocking buffer with 0.1% Tween-20 (Solarbio, P8220) at 4° C. overnight (Anti-SMARCA2/BRM antibody (ab15597) 1:500; Anti-BRG1 antibody [EPR3912] (ab108318) 1:1000; Rabbit anti-Baf180 antibody [EPR15860] (Abcam, ab196022) 1:1000; mouse anti-beta-Actin (8H10D10) (CST #3700) 1:10000). The membrane was washed three times with TBST, 5 minutes each. Incubation with secondary antibody was performed for 1 hour at RT (anti-rabbit IgG (Licor, 926-32211) 1:5000; anti-mouse IgG (LI-COR, 926-68070) 1:5000). The membrane was washed three times with TBST, 5 minutes each and lastly the LiCOR was read.
(§3) The letter codes for SMARCA degradation potency (DC50) include: A (<100 nM), B (100-500 nM), C (501-1000 nM), and D (>1000 nM). The letter codes for the percentage of SMARCA degradation after 24 hours (Dmax %) include: A (>90% degradation), B (>70-90% degradation), C (50-70% degradation), and D (<50% degradation).

Test [2] has as its target T1, SMARCA2. Kind of test: MSD SMARCA2 degradation in A549 cell line. To be noted: 24 h; for Dmax: A549, A549 cells; for DC50: A549 cells, read-out: SMARCA2 MSD A549 degradation 24 h: Average external-Abs DC50. More on the design: endogenous in cells. Here is the method: Example 53. MSD SMARCA2 Degradation in A549 Cell Line
Cells were seeded into 96-well plates (A549 cells: 2×10^4 cells/well/100 ul media) abd incubated overnight. The next day, 200 nl compound were added into the intermediate plate with Echo (Labcyte 550) from source plate containing a 3-fold serial dilution from top concentration of 1 mM. The culture medium was changed with 80 ul of fresh medium and 80 ul of 2× compound solution was added into the well to make a final concentration of 1000 nM, 333.3 nM, 111.1 nM, 37.04 nM, 12.35 nM, 4.115 nM, 1.372 nM, 0.457 nM, 0.152 nM and 0 nM (DMSO). The wells were mixed and then incubated for 24 hours. The media was aspirated from the cultures and 60 ul pre-chilled PIPA lysis buffer (Boston BioProducts BP-115D) with protease/phosphatase inhibitor (Roche 05892791001/Roche 04906837001) was added into the well to lyze the cells for 20 minutes at 4° C. The MSD plate (L15XA) was coated with 40 ul cell lysate and incubated at 4° C. overnight. The next day, the plate was washed three times with TBST (CST #9997S), 150 ul/well. The MSD plates was blocked with 150 ul blocking buffer per well and shaked for 1 hr at R^†, 600 rpm. The blocking buffer was 3% Blocker A (MSD, R93BA-4) in TBST. The MSD plate was washed three times with 150 ul/well of TBST and 25 ul/well of detection antibody (Rabbit anti-SMARCA2/BRM antibody, 100 μg/ml, ab223735) was added at final concentration of 1 ug/mi diluted in 1% o Blocking buffer and shaken for 1 hour at R^†, 600 rpm. The MSD plate was washed three times with 150 ul/well of TBST and 25 ul/well of SULFO-TAG anti-rabbit antibody (MSD, R32AB-1) was added at final concentration of 1 μg/ml diluted in […] Blocking buffer and shaken for 1 hour at R^†, 600 rpm. The MSD plate was washed three times with 150 ul/well of TBST and 150 ul/well of 2×MSD reading buffer diluted from 4× (MSD, R92TC-2) with water was added. Lastly, the MSD instrument was read.
The letter codes for SMARCA2 degradation potency (DC50) include: A (<100 nM), B (100-500 nM), C (501-1000 nM), and D (>1000 nM). The letter codes for the percentage of SMARCA2 degradation after 24 hours (Dmax % o) include: A (>90% o degradation), B (>70-90% o degradation), C (50-70% o degradation), and D (<50% degradation).

Another test has as its target T2, SMARCA4 (Homo sapiens, UniProt P51532).
T2 construct: SMARCA2 and SMARCA4 protein degradation in MV4-11 cells; endogenous in cells; host or cells: MV4-11
In words: SMARCA4 Western blot MV4-11 degradation. To be noted: MV4-11 cells, 24 h; read-out: SMARCA4 MSD MV411 degradation 24 h: Mean external-Abs DC50. Here is the method: as §1, §2, §3

Bounds are passed on as bounds.

T1 sequence (P51531 whole entry): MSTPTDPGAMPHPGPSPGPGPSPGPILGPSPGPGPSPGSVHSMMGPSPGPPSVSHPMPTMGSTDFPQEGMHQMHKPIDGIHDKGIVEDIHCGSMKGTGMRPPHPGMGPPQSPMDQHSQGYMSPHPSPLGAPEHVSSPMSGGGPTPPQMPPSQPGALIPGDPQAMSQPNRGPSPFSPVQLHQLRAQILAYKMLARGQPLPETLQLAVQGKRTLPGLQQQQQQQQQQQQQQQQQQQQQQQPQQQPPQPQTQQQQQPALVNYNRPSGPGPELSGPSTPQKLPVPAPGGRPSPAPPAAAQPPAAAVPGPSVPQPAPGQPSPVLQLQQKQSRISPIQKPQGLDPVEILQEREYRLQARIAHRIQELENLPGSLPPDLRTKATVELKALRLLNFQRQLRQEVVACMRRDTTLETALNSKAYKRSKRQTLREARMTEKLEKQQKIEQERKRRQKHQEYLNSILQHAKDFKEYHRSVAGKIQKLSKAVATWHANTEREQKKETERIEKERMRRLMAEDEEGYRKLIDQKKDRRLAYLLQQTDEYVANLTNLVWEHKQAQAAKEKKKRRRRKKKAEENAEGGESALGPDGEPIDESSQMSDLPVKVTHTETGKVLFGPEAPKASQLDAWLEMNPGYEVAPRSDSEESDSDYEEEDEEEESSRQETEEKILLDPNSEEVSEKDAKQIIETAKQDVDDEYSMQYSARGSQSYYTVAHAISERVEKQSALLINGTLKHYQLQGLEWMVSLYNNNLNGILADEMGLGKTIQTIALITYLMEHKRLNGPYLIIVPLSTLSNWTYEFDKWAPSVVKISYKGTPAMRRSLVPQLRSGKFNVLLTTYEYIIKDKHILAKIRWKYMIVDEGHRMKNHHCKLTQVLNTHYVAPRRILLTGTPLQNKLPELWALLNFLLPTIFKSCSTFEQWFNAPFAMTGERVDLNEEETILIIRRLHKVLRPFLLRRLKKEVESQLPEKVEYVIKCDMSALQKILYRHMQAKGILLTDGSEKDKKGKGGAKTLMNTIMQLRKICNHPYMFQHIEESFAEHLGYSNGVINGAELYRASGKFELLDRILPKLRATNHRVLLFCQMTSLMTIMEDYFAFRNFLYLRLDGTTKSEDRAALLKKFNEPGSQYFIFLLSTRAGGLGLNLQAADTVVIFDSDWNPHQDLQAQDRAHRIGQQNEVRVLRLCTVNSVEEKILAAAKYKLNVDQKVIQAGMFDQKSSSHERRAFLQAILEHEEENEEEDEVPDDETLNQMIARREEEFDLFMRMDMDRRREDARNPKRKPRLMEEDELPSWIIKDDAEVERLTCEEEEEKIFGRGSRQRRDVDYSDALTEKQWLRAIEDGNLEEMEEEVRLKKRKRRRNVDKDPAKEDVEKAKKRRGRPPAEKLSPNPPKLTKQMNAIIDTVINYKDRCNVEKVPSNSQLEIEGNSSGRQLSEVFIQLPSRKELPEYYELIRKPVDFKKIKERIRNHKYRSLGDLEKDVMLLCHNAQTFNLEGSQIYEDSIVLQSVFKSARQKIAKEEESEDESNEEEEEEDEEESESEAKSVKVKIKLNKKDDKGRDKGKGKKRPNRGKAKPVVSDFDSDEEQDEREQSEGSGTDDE
T2 sequence (P51532 whole entry): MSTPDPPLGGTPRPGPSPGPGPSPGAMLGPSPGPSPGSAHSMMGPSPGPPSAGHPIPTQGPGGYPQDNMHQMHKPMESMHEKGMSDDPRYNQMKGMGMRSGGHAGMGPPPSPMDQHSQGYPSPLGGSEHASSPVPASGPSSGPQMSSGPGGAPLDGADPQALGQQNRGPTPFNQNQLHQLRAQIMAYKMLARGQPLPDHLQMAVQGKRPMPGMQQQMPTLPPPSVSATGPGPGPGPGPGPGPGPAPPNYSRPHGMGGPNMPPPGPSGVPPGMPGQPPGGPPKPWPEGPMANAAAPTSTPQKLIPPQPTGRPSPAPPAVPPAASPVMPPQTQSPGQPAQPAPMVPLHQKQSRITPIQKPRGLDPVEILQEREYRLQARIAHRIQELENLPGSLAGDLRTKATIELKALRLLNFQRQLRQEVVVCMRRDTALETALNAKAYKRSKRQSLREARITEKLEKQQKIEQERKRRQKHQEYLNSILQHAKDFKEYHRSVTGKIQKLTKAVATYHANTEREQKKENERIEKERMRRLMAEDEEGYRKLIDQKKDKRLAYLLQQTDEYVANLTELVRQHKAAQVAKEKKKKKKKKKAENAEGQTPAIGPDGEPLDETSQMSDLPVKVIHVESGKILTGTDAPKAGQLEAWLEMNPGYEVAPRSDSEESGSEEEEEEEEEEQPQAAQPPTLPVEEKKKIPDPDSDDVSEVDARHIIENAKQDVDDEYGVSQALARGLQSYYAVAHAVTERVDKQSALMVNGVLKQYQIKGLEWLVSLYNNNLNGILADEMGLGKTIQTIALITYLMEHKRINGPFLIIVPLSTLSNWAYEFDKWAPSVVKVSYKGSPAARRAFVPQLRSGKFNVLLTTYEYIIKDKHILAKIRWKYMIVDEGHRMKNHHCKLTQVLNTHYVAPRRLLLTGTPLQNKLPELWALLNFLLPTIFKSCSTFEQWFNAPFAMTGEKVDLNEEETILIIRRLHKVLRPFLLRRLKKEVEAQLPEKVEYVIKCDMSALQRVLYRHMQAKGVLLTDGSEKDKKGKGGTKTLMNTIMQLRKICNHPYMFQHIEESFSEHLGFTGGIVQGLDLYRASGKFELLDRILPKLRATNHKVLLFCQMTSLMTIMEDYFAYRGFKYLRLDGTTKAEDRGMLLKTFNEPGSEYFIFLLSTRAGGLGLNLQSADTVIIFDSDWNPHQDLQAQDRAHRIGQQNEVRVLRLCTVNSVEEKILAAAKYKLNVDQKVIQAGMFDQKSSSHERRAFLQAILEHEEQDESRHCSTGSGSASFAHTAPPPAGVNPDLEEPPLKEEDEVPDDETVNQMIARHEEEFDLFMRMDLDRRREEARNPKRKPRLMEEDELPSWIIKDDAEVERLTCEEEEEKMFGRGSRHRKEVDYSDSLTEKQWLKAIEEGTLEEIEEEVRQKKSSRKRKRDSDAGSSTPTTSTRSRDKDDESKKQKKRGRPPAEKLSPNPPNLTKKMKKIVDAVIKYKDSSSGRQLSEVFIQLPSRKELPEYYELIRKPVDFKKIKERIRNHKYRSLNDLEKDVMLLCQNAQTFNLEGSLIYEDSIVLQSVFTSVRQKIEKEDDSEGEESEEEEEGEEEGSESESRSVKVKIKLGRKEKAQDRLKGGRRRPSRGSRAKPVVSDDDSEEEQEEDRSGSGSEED

For `Cc1ncsc1-c1ccc(CNC(=O)[C@@H]2C[C@@H](O)CN2C(=O)C(c2cc(O[C@H]3CC[C@H](N4CCC(c5cnc(N6C7CCC6CN(c6cc(-c8ccccc8O)nnc6N)C7)nc5)CC4)CC3)no2)C(C)C)cc1` (stereo partly drawn) [I-17, (2S,4R)-1-(2-(3-(((1r,4S)-4-(4-(2-(3-(3-amino-6-(2-hydroxyphenyl)pyridazin-4-yl)-3,8-diazabicyclo[3.2.1]octan-8-yl)pyrimidin-5-yl)piperidin-1-yl)cyclohexyl)oxy)isoxazol-5-yl)-3-methylbutanoyl)-4-hydroxy-N-(4-(4-methylthiazol-5-yl)benzyl)pyrrolidine-2-carboxamide], at SMARCA2 [1], the Dmax is over 90% and the DC50 is under 0.1 µM. Besides, at SMARCA2 [2], the Dmax was over 90% and the DC50 was under 0.1 µM.

`Cc1ncsc1-c1ccc(CNC(=O)[C@@H]2C[C@@H](O)CN2C(=O)C(c2cc(O[C@H]3CC[C@@H](N4CCC(c5cnc(N6C7CCC6CN(c6cc(-c8ccccc8O)nnc6N)C7)nc5)CC4)CC3)no2)C(C)C)cc1` (stereo partly drawn) [I-18, (2S,4R)-1-(2-(3-(((1s,4R)-4-(4-(2-(3-(3-amino-6-(2-hydroxyphenyl)pyridazin-4-yl)-3,8-diazabicyclo[3.2.1]octan-8-yl)pyrimidin-5-yl)piperidin-1-yl)cyclohexyl)oxy)isoxazol-5-yl)-3-methylbutanoyl)-4-hydroxy-N-(4-(4-methylthiazol-5-yl)benzyl)pyrrolidine-2-carboxamide]: on SMARCA2 [1], the Dmax was over 90% and the DC50 is under 0.1 µM. On SMARCA2 [2], the Dmax is over 90% and the DC50 was under 0.1 µM.

In the case of `Cc1ncsc1-c1ccc(CNC(=O)[C@@H]2C[C@@H](O)CN2C(=O)C(c2cc([C@H]3CC[C@@H](N4CCC(c5cnc(N6C7CCC6CN(c6cc(-c8ccccc8O)nnc6N)C7)nc5)CC4)CC3)no2)C(C)C)cc1` (stereo partly drawn) [I-19, (2S,4R)-1-(2-(3-(4-(4-(2-(3-(3-amino-6-(2-hydroxyphenyl)pyridazin-4-yl)-3,8-diazabicyclo[3.2.1]octan-8-yl)pyrimidin-5-yl)piperidin-1-yl)cyclohexyl)isoxazol-5-yl)-3-methylbutanoyl)-4-hydroxy-N-(4-(4-methylthiazol-5-yl)benzyl)pyrrolidine-2-carboxamide], at SMARCA2 [1], the maximal degradation (Dmax) is over 90% and the DC50 is under 0.1 µM. At SMARCA2 [2], the Dmax is over 90% and the DC50 is under 0.1 µM.

Regarding `Cc1ncsc1-c1ccc(CNC(=O)[C@@H]2C[C@@H](O)CN2C(=O)C(c2cc([C@H]3CC[C@H](N4CCC(c5cnc(N6C7CCC6CN(c6cc(-c8ccccc8O)nnc6N)C7)nc5)CC4)CC3)no2)C(C)C)cc1` (stereo partly drawn) [I-20, (2S,4R)-1-(2-(3-(4-(4-(2-(3-(3-amino-6-(2-hydroxyphenyl)pyridazin-4-yl)-3,8-diazabicyclo[3.2.1]octan-8-yl)pyrimidin-5-yl)piperidin-1-yl)cyclohexyl)isoxazol-5-yl)-3-methylbutanoyl)-4-hydroxy-N-(4-(4-methylthiazol-5-yl)benzyl)pyrrolidine-2-carboxamide], at SMARCA2 [2], the Dmax is over 90% and the DC50 was under 0.1 µM.

Consider `Cc1ncsc1-c1cnc(CNC(=O)[C@@H]2C[C@@H](O)CN2C(=O)[C@@H](NC(=O)[C@H]2CC3(C2)C[C@H](N2CCC(c4ccc(N5C6CCC5CN(c5cc(-c7ccccc7O)nnc5N)C6)cc4)CC2)C3)C(C)(C)C)nc1` (stereo partly drawn) [I-26, (2S,4R)-1-((2S)-2-(6-(4-(4-(3-(3-amino-6-(2-hydroxyphenyl)pyridazin-4-yl)-3,8-diazabicyclo [3.2.1]octan-8-yl)phenyl)piperidin-1-yl)spiro[3.3]heptane-2-carboxamido)-3,3-dimethylbutanoyl)-4-hydroxy-N-((5-(4-methylthiazol-5-yl)pyrimidin-2-yl)methyl)pyrrolidine-2-carboxamide], for which the DC50 on SMARCA4 and on SMARCA2 [2] was over 1 µM throughout.

With `Cc1ncsc1-c1cnc(CNC(=O)[C@@H]2C[C@@H](O)CN2C(=O)[C@@H](NC(=O)[C@H]2CC3(C2)C[C@H](N2CCC(c4ccc(N5C6CCC5CN(c5cc(-c7ccccc7O)nnc5N)C6)cc4)CC2)C3)C(C)(C)C)cn1` (stereo partly drawn) [I-30, (2S,4R)-1-((2S)-2-(6-(4-(4-(3-(3-amino-6-(2-hydroxyphenyl)pyridazin-4-yl)-3,8-diazabicyclo[3.2.1]octan-8-yl)phenyl)piperidin-1-yl)spiro[3.3]heptane-2-carboxamido)-3,3-dimethylbutanoyl)-4-hydroxy-N-((5-(4-methylthiazol-5-yl)pyrazin-2-yl)methyl)pyrrolidine-2-carboxamide], the DC50 on SMARCA4 and on SMARCA2 [2] was over 1 µM throughout.

Turning to `Cc1nccn1-c1ccc(CNC(=O)[C@@H]2C[C@@H](O)CN2C(=O)[C@@H](NC(=O)[C@H]2CC3(C2)C[C@H](N2CCC(c4cnc(N5C6CCC5CN(c5cc(-c7ccccc7O)nnc5N)C6)nc4)CC2)C3)C(C)(C)C)cc1` (stereo partly drawn) [I-34, (2S,4R)-1-((2S)-2-(6-(4-(2-(3-(3-amino-6-(2-hydroxyphenyl)pyridazin-4-yl)-3,8-diazabicyclo[3.2.1]octan-8-yl)pyrimidin-5-yl)piperidin-1-yl)spiro[3.3]heptane-2-carboxamido)-3,3-dimethylbutanoyl)-4-hydroxy-N-(4-(2-methyl-1H-imidazol-1-yl)benzyl-)pyrrolidine-2-carboxamide], the DC50 is over 1 µM at SMARCA4 and 0.1 to 0.5 µM at SMARCA2 [1].

Consider `Cc1ncsc1-c1ccc(CNC(=O)[C@@H]2C[C@@H](O)CN2C(=O)C(c2cc(N3CCC(CCCN4CCC(c5cnc(N6C7CCC6CN(c6cc(-c8ccccc8O)nnc6N)C7)nc5)CC4)CC3)no2)C(C)C)cc1` (stereo partly drawn) [I-64], for which, on SMARCA2 [1], the Dmax was over 90% and the DC50 is under 0.1 µM. At SMARCA2 [2], the Dmax is over 90% and the DC50 was under 0.1 µM.

For the origin of these results see patent US12606568B2, “SMARCA degraders and uses thereof” (Kymera Therapeutics, Inc., priority 2020, dated 2026).
